Measurements as given in EPA's ToxRefDB 2.

Legend:
mouse [1] = settings: Carcinogenicity, Oral, Feed, dose end: 720 day, group: systemic
rat [2] = settings: Sub-acute repeat dose toxicity, sprague dawley, Oral, Gavage/Intubation, dose end: 36 day, group: systemic
rat [3] = settings: Fertility (Segment I); sprague dawley; Oral; Gavage/Intubation; dose end: 1 generation; group: parental; systemic / in life observation / body weight / body weight gain
rat [4] = settings: Sub-acute repeat dose toxicity, wistar, Oral, Feed, dose end: 4 week, group: systemic
mouse [5] = settings: Subchronic oral toxicity in rodents, cd1, Feed, dose end: 13 week, group: systemic, systemic / in life observation / body weight / body weight gain + systemic / organ weight / liver / absolute + systemic / organ weight / …
rat [6] = settings: Sub-acute dermal toxicity, wistar, Topical, dose end: 28 day, group: systemic, systemic / clinical chemistry / cholesterol / cholesterol + systemic / clinical chemistry / globulins / globulins + systemic / clinical …
rabbit [7] = settings: Prenatal developmental toxicity study, new zealand white, Oral, Gavage/Intubation, dose end: 18 GD
rat [8] = settings: Prenatal developmental toxicity study, wistar, Oral, Gavage/Intubation, dose end: 15 GD
mouse [9] = settings: Carcinogenicity; cd1; Oral; Feed; dose end: 88 week; group: systemic; systemic / pathology microscopic / liver / hypertrophy + systemic / pathology microscopic / liver / inflammation + systemic / pathology …
rat [10] = settings: Subchronic oral toxicity in rodents, wistar, Feed, dose end: 13 week, group: systemic
dog [11] = settings: Chronic toxicity; beagle; Oral; Feed; dose end: 52 week; group: systemic; systemic / clinical chemistry / cytochrome p450, nos / cytochrome p450, nos + systemic / clinical chemistry / glutathione-s-transferase / …
dog [12] = settings: Subchronic oral toxicity in nonrodent, beagle, Feed, dose end: 13 week, group: systemic, systemic / clinical chemistry / alkaline phosphatase (alp/alk) / alkaline phosphatase (alp/alk) + systemic / clinical chemistry / gamma …
rabbit [13] = settings: Prenatal developmental toxicity study, new zealand white, Oral, Gavage/Intubation, dose end: 18 GD; remark: listed apart in the source
rat [14] = settings: Sub-acute repeat dose toxicity; wistar; Oral; Feed; dose end: 4 week; group: systemic; systemic / clinical chemistry / lactic acid dehydrogenase (ldh) / lactic acid dehydrogenase (ldh) + systemic / organ weight / liver / …
rat [15] = settings: Subchronic oral toxicity in rodents, wistar, Feed, dose end: 13 week, group: systemic; remark: listed apart in the source
rat [16] = settings: Subchronic oral toxicity in rodents, wistar, Feed, dose end: 13 week, group: systemic, systemic / clinical chemistry / calcium / calcium + systemic / clinical chemistry / creatinine / creatinine + systemic / clinical chemistry…
rabbit [17] = settings: Sub-acute dermal toxicity, new zealand white, Topical, dose end: 21 day, group: systemic, systemic / in life observation / clinical signs / desquamation + systemic / in life observation / clinical signs / erythema + systemic / …
[18] = systemic / hematology / [other] / [other] + systemic / in life observation / body weight / body weight gain + systemic / in life observation…
[19] = systemic / in life observation / mortality / mortality
[20] = systemic / in life observation / body weight / body weight gain + systemic / in life observation / water consumption / water consumption
[21] = systemic / in life observation / water consumption / water consumption
[22] = systemic / pathology microscopic / liver / lipid deposition + systemic / pathology microscopic / liver / vacuolization
[23] = systemic / pathology microscopic / liver / lipid deposition + systemic / pathology microscopic / liver / vacuolization + systemic / clinical…
[24] = group: developmental, developmental / developmental malformation / general / [other] + developmental / developmental malformation / limb / malrotated
[25] = group: maternal, systemic / in life observation / body weight / body weight gain
[26] = group: maternal, systemic / in life observation / body weight / body weight gain + systemic / in life observation / food consumption / food consumption
[27] = group: developmental, developmental / developmental malformation / bone / full supernumerary
[28] = group: developmental, developmental / developmental malformation / bone / full supernumerary + developmental / developmental malformation / bone / incomplete …
[29] = group: maternal, systemic / in life observation / body weight / body weight gain + reproductive / reproductive performance / postimplantation loss / …
[30] = systemic / in life observation / body weight / body weight gain + systemic / clinical chemistry / alanine aminotransferase (alt/sgpt) / …
[31] = group: developmental, systemic / in life observation / body weight / fetal weight + developmental / developmental malformation / bone / [other] + developmental / …
[32] = group: maternal, reproductive / reproductive performance / postimplantation loss / postimplantation loss + systemic / in life observation / body weight / …
[33] = systemic / pathology microscopic / thyroid gland / hypertrophy

CS(=O)(=O)N[C@@H](CCCCN)C(=O)NC[C@H](CC1(C(=O)N[C@@H](Cc2ccc(O)cc2)C(=O)O)CCCC1)C(=O)O [Sampatrilat]
LOAEL (mouse [1]; [18]): > 600 mg/kg/day | NOAEL (mouse [1]; [18]): ≥ 600 mg/kg/day | LEL (mouse [1]; [19]): 40 mg/kg/day | NEL (mouse [1]; [19]): < 40 mg/kg/day | LOAEL (rat [2]; [20]): > 300 mg/kg/day | NOAEL (rat [2]; [20]): ≥ 300 mg/kg/day | LEL (rat [2]; [21]): 30 mg/kg/day | NEL (rat [2]; [21]): < 30 mg/kg/day | LEL (rat [3]): 200 mg/kg/day | LOAEL (rat [3]): > 1000 mg/kg/day | NEL (rat [3]): 50 mg/kg/day | NOAEL (rat [3]): ≥ 1000 mg/kg/day

CC(C1CC1)C(O)(Cn1cncn1)c1ccc(Cl)cc1 (stereo not given) [Cyproconazole]
LEL (rat [4]; [22]): 527 mg/kg/day | LOAEL (rat [4]; [22]): 527 mg/kg/day | NEL (rat [4]; [23]): 155 mg/kg/day | NOAEL (rat [4]; [23]): 155 mg/kg/day | LEL (mouse [5]): 43.8 mg/kg/day | LOAEL (mouse [5]): 43.8 mg/kg/day | NEL (mouse [5]): 2.2 mg/kg/day | NOAEL (mouse [5]): 2.2 mg/kg/day | LEL (rat [6]): 100 mg/kg/day | LOAEL (rat [6]): 100 mg/kg/day | NEL (rat [6]): 10 mg/kg/day | NOAEL (rat [6]): 10 mg/kg/day | LOAEL (rabbit [7]; group: developmental, developmental / developmental malformation / general / [other]): 10 mg/kg/day | LEL (rabbit [7]; [24]): 10 mg/kg/day | NEL (rabbit [7]; [24]): 2 mg/kg/day | NOAEL (rabbit [7]; [24]): 2 mg/kg/day | LOAEL (rabbit [7]; [25]): 50 mg/kg/day | LEL (rabbit [7]; [26]): 50 mg/kg/day | NEL (rabbit [7]; [26]): 10 mg/kg/day | NOAEL (rabbit [7]; [26]): 10 mg/kg/day | LEL (rat [8]; [27]): 12 mg/kg/day | LOAEL (rat [8]; [27]): 12 mg/kg/day | NEL (rat [8]; [28]): 6 mg/kg/day | NOAEL (rat [8]; [28]): 6 mg/kg/day | LEL (rat [8]; [25]): 12 mg/kg/day | LOAEL (rat [8]; [25]): 12 mg/kg/day | NEL (rat [8]; [29]): 6 mg/kg/day | NOAEL (rat [8]; [29]): 6 mg/kg/day | LEL (mouse [9]): 13.2 mg/kg/day | LOAEL (mouse [9]): 13.2 mg/kg/day | NEL (mouse [9]): 1.84 mg/kg/day | NOAEL (mouse [9]): 1.84 mg/kg/day | LOAEL (rat [10]; systemic / in life observation / body weight / body weight gain): 27.3 mg/kg/day | NEL (rat [10]; [30]): 1.5 mg/kg/day | NOAEL (rat [10]; [30]): 1.5 mg/kg/day | LEL (rat [10]; systemic / in life observation / body weight / body weight gain + systemic / in life observation / food consumption / food efficiency + …): 27.3 mg/kg/day | LEL (dog [11]): 3.2 mg/kg/day | LOAEL (dog [11]): 3.2 mg/kg/day | NEL (dog [11]): 1 mg/kg/day | NOAEL (dog [11]): 1 mg/kg/day | LEL (dog [12]): 20 mg/kg/day | LOAEL (dog [12]): 20 mg/kg/day | NEL (dog [12]): 4 mg/kg/day | NOAEL (dog [12]): 4 mg/kg/day | LOAEL (rabbit [13]; group: developmental, systemic / in life observation / body weight / fetal weight): 60 mg/kg/day | LEL (rabbit [13]; [31]): 60 mg/kg/day | NEL (rabbit [13]; [31]): 10 mg/kg/day | NOAEL (rabbit [13]; [31]): 10 mg/kg/day | LEL (rabbit [13]; [32]): 60 mg/kg/day | LOAEL (rabbit [13]; [32]): 60 mg/kg/day | NEL (rabbit [13]; [32]): 10 mg/kg/day | NOAEL (rabbit [13]; [32]): 10 mg/kg/day | LEL (rat [14]): 25.3 mg/kg/day | LOAEL (rat [14]): 25.3 mg/kg/day | NEL (rat [14]): 8.14 mg/kg/day | NOAEL (rat [14]): 8.14 mg/kg/day | LOAEL (rat [15]; systemic / organ weight / liver / absolute + systemic / organ weight / liver / relative to body weight + systemic / pathology microscopic / …): 24.7 mg/kg/day | LEL (rat [15]; [33]): 1.4 mg/kg/day | NEL (rat [15]; [33]): < 1.4 mg/kg/day | NOAEL (rat [15]; systemic / pathology microscopic / thyroid gland / hypertrophy + systemic / organ weight / liver / absolute + systemic / organ weight / …): 1.4 mg/kg/day | LEL (rat [16]): 1.5 mg/kg/day | LOAEL (rat [16]): > 21.4 mg/kg/day | NEL (rat [16]): < 1.5 mg/kg/day | NOAEL (rat [16]): ≥ 21.4 mg/kg/day | LEL (rabbit [17]): 1000 mg/kg/day | LOAEL (rabbit [17]): 1000 mg/kg/day | NEL (rabbit [17]): 300 mg/kg/day | NOAEL (rabbit [17]): 300 mg/kg/day
